Experimental data reported in ChEMBL document CHEMBL1201862, “PubChem BioAssay data set” (2004).
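1) Cells in 96-well plates. 2) Compound, 48 h, 5 concentrations. 3) Linear interpolation between surrounding doses. 4) Unreached endpoint = highest concentration. GI50 is the concentration that inhibits growth by half.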 Calls of active or inactive are those of the source. No stated cut-off is given here; in the data, active = GI50 up to about 1.1 µM and inactive = higher.

What was measured:
Assay in all cases: inhibition of tumour cell growth, NCI panel, 48 h
[1] = system: 786-0
[2] = system: A498
[3] = system: A549
[4] = system: ACHN
[5] = system: BT-549
[6] = system: CCRF-CEM
[7] = system: COLO 205
[8] = system: DU-145
[9] = system: EKVX
[10] = system: HCC 2998
[11] = system: HCT-116
[12] = system: HCT-15
[13] = system: HL-60
[14] = system: HOP-62
[15] = system: HT-29
[16] = system: Hs-578T
[17] = system: IGROV-1
[18] = system: K562
[19] = system: KM12
[20] = system: LOX IMVI
[21] = system: M14
[22] = system: MCF7
[23] = system: MDA-MB-231
[24] = system: MDA-MB-435
[25] = system: MDA-N
[26] = system: MOLT-4
[27] = system: NCI-H226
[28] = system: NCI-H23
[29] = system: NCI-H460
[30] = system: NCI-H522
[31] = system: NCI/ADR-RES
[32] = system: OVCAR-5
[33] = system: OVCAR-8
[34] = system: PC-3
[35] = system: RPMI-8226
[36] = system: SF-268
[37] = system: SF-295
[38] = system: SF-539
[39] = system: SK-MEL-28
[40] = system: SK-MEL-2
[41] = system: SK-MEL-5
[42] = system: SK-OV-3
[43] = system: SN12C
[44] = system: SNB-19
[45] = system: SNB-75
[46] = system: SR
[47] = system: SW-620
[48] = system: T47D
[49] = system: TK-10
[50] = system: U-251
[51] = system: UACC-257
[52] = system: CAKI-1
[53] = system: HOP-92
[54] = system: Malme-3M
[55] = system: OVCAR-4
[56] = system: UACC-62
[57] = system: UO-31

CC(C)(C)OC(=O)NC(Cc1ccc(OC(C)(C)C)cc1)C(=O)N[C@H]1CC[C@H](C(=O)O)C1 (stereo partly specified)
GI50 [1]: > 100 µM (inactive)
GI50 [2]: > 100 µM (inactive)
GI50 [3]: > 100 µM (inactive)
GI50 [4]: > 100 µM (inactive)
GI50 [5]: 45 µM (inactive)
GI50 [6]: > 100 µM (inactive)
GI50 [7]: > 100 µM (inactive)
GI50 [8]: > 100 µM (inactive)
GI50 [9]: > 100 µM (inactive)
GI50 [10]: > 100 µM (inactive)
GI50 [11]: > 100 µM (inactive)
GI50 [12]: > 100 µM
GI50 [13]: > 100 µM (inactive)
GI50 [14]: > 100 µM (inactive)
GI50 [15]: > 100 µM (inactive)
GI50 [16]: > 100 µM (inactive)
GI50 [17]: > 100 µM (inactive)
GI50 [18]: > 100 µM (inactive)
GI50 [19]: > 100 µM (inactive)
GI50 [20]: > 100 µM (inactive)
GI50 [21]: > 100 µM (inactive)
GI50 [22]: > 100 µM (inactive)
GI50 [23]: > 100 µM (inactive)
GI50 [24]: > 100 µM (inactive)
GI50 [25]: > 100 µM (inactive)
GI50 [26]: > 100 µM (inactive)
GI50 [27]: > 100 µM (inactive)
GI50 [28]: > 100 µM (inactive)
GI50 [29]: > 100 µM (inactive)
GI50 [30]: > 100 µM (inactive)
GI50 [31]: > 100 µM (inactive)
GI50 [32]: > 100 µM (inactive)
GI50 [33]: > 100 µM (inactive)
GI50 [34]: 89.1 µM (inactive)
GI50 [35]: > 100 µM (inactive)
GI50 [36]: > 100 µM (inactive)
GI50 [37]: > 100 µM (inactive)
GI50 [38]: > 100 µM (inactive)
GI50 [39]: > 100 µM (inactive)
GI50 [40]: > 100 µM (inactive)
GI50 [41]: > 100 µM (inactive)
GI50 [42]: > 100 µM (inactive)
GI50 [43]: > 100 µM (inactive)
GI50 [44]: > 100 µM (inactive)
GI50 [45]: > 100 µM (inactive)
GI50 [46]: > 100 µM (inactive)
GI50 [47]: > 100 µM (inactive)
GI50 [48]: > 10 µM (inactive)
GI50 [49]: > 100 µM (inactive)
GI50 [50]: > 100 µM (inactive)
GI50 [51]: > 100 µM (inactive)

O=C(CCc1ccc(O)c(O)c1)c1ccc(O)c(O)c1O
GI50 [1]: 35.2 µM (inactive)
GI50 [2]: 17.9 µM (inactive)
GI50 [3]: 34.2 µM (inactive)
GI50 [4]: 14.3 µM (inactive)
GI50 [5]: > 10 µM (inactive)
GI50 [52]: 17.8 µM (inactive)
GI50 [6]: 10.2 µM (inactive)
GI50 [7]: 17.7 µM (inactive)
GI50 [8]: 19.7 µM (inactive)
GI50 [9]: 20 µM (inactive)
GI50 [10]: 49.8 µM (inactive)
GI50 [11]: 37.3 µM (inactive)
GI50 [12]: 14.7 µM
GI50 [13]: 11.5 µM (inactive)
GI50 [53]: 22.3 µM (inactive)
GI50 [15]: 26.7 µM (inactive)
GI50 [16]: 23.6 µM (inactive)
GI50 [17]: 25.1 µM (inactive)
GI50 [18]: 13.2 µM (inactive)
GI50 [19]: 17.3 µM (inactive)
GI50 [20]: 27.7 µM (inactive)
GI50 [21]: 16.8 µM (inactive)
GI50 [22]: 19.1 µM (inactive)
GI50 [23]: 20.3 µM (inactive)
GI50 [24]: 18.9 µM (inactive)
GI50 [25]: 15.3 µM (inactive)
GI50 [26]: 22.3 µM (inactive)
GI50 [54]: 28.4 µM (inactive)
GI50 [27]: 11.5 µM (inactive)
GI50 [28]: 21.4 µM (inactive)
GI50 [29]: 13 µM (inactive)
GI50 [30]: 11.9 µM (inactive)
GI50 [31]: 26.5 µM (inactive)
GI50 [55]: 19.7 µM (inactive)
GI50 [32]: 21.2 µM (inactive)
GI50 [33]: 22.9 µM (inactive)
GI50 [34]: 34.5 µM (inactive)
GI50 [36]: 16.6 µM (inactive)
GI50 [37]: 18.3 µM (inactive)
GI50 [38]: 15.5 µM (inactive)
GI50 [39]: 60.7 µM (inactive)
GI50 [40]: 58.7 µM (inactive)
GI50 [41]: 17.3 µM (inactive)
GI50 [42]: 52.2 µM (inactive)
GI50 [43]: 15.3 µM (inactive)
GI50 [44]: 34.4 µM (inactive)
GI50 [45]: 19.1 µM (inactive)
GI50 [46]: 24.9 µM (inactive)
GI50 [47]: 27.4 µM (inactive)
GI50 [48]: 23.7 µM (inactive)
GI50 [49]: 19 µM (inactive)
GI50 [50]: 14.8 µM (inactive)
GI50 [51]: 31.5 µM (inactive)
GI50 [56]: 25.9 µM (inactive)
GI50 [57]: 52.4 µM (inactive)
